Results reported in patent US20250041286A1, “CANCER TREATMENT USING KETOTIFEN IN COMBINATION WITH A CHECKPOINT INHIBITOR” (Materia Therapeutics Inc., priority 2021, published 2025).

Assays:
K7M2wt tumors [1] = experiment: Tumor growth (volume, mass) under daily ketotifen, osteosarcoma model; assay type: in vivo, mouse; conditions: daily ketotifen i.p. for 8 days
Method: Two mouse models of distinct sarcoma subtypes, fibrosarcoma (MCA205 cells) and osteosarcoma (K7M2wt cells), were used in this study.
MCA205, a mouse fibrosarcoma cell line (SCC173, Millipore), was cultured in RPMI-1640 expansion medium containing 2 mM L-glutamine, 1 mM sodium pyruvate, 10% fetal bovine serum, 1× non-essential amino acids (TMS-001-C, Sigma), 1% antibiotics (A5955, Sigma), and 1×β-mercaptoethanol. K7M2wt, a mouse osteosarcoma cell line (CRL2836™, ATCC®), was cultured in DMEM expansion medium supplemented with 10% FBS and 1% antibiotics. All cells were maintained at 37° C./5% CO2.
A fibrosarcoma syngeneic tumor model was generated by subcutaneous implantation of 2.5×10^5 MCA205 cells in 50 μL of serum-free medium into the flank of 6-week old C57BL/6 female mice. A osteosarcoma syngeneic tumor model was generated by implanting K7M2wt tumor chunks into the fat pad of 6-week old BALB/c female mice. […]
Each treatment group of 4-7 mice received subtherapeutic doses of ketotifen (1, 5, 10 and 25 mg/kg) for a period of 8 days. […] Planar dimensions (x, y) of tumor were monitored every 2-3 days using a digital caliper and tumor volume was estimated from the volume of an ellipsoid and assuming that the third dimension, z, is equal to sqrt(x y).

K7M2wt tumors [2] = experiment: qPCR mRNA expression levels in tumors; assay type: in vivo, mouse; conditions: 10 mg/kg ketotifen, compared with the effect in MCA205
Method: Total RNA was isolated from breast tumors according to the standard Trizol-based protocol (Invitrogen), and cDNA synthesis was performed using reverse transcriptase III (RT-III) enzyme and random hexamers (Invitrogen). Real-time polymerase chain reaction was performed using Sybr Fast Universal Master Mix (KAPA). Reactions were performed using a CFX-96 real-time PCR detection system (BioRad) at the following conditions: 95° C. for 2 minutes, 95° C. for 2 seconds, 60° C. for 20 seconds, 60° C. for 1 second, steps 2-4 for 39 cycles. Real-time PCR analysis and calculation of changes in gene expression between compared groups was performed using the ΔΔ^Ct method. Relative gene expression was normalized based on the expression of β-actin. For qPCR analysis, 3-5 biological samples were used per treatment and 3 technical replicates for each sample.
mRNA expression levels were evaluated in both mouse sarcoma models by qPCR, as described above.

K7M2wt tumors [3] = experiment: Proliferation of CAFs, α-SMA / Ki-67 immunostaining; assay type: in vivo, mouse; conditions: 10 mg/kg ketotifen
Method: (§1) Proliferation of CAFs was evaluated by immunostaining for the presence of alpha-smooth muscle actin (α-SMA) (ab5694, Abcam; diluted 1:50) protein and Ki-67 (Abcam; diluted 1:200) proliferation marker following antigen retrieval, 1 hour incubation in serum solution (10% FBS, 3% donkey serum in 1×PBS), and 1 hour incubation in blocking solution for endogenous mouse IgG (Abcam; diluted 1:100). Following washes with TBS-T (0.25% Tween-20), Alexa Fluor-647 anti-rabbit IgG (H+L) (Invitrogen; diluted 1:400) and Fluor-488 anti-rat IgG (H+L) (Invitrogen; diluted 1:400) secondary antibodies and DAPR (Sigma diluted 1:100 of 1 mg/mL stock) were applied for 1 hour at room temperature. Sections were then mounted on microscope slides using the ProLong gold antifade mountant (Invitrogen) and covered with a glass coverslip. CAF proliferation fraction was detected as the ratio of overlapping α-SMA (green) and Ki67 (red) positive signal to total CAF signal (α-SMA^+), indicating CAFs.

MCA205 tumors [4] = experiment: as above; assay type: in vivo, mouse; conditions: 10 mg/kg ketotifen
Method: as §1

K7M2wt tumors [5] = experiment: Hyaluronan evaluation, HABP1 immunofluorescence; assay type: in vivo, mouse; conditions: daily ketotifen 10 mg/kg
Method: (§2) Besides collagen, other structural components of tumor stroma can exert pressure and deform vessels. Such an example is the hyaluronan (e.g., hyaluronic acid), which binds to and retains excessive fluid generating gel-like regions within the tissue. Therefore, hyaluronic acid staining was performed in both sarcoma mouse models.
(§3) Tumors were removed from mice, washed twice in 1×PBS for 10 min, and incubated with 4% PFA overnight at 4° C. The fixative was aspirated, and samples were washed twice in 1×PBS for 10 min. Tissue samples were dehydrated in successive ethanol steps and xylene followed by paraffin embedding. Serial sections ([…]) of paraffin-embedded tissues were produced using the microtome (Accu-Cut SRM 200 Rotary Microtome, SAKURA), flattened out into water, and allowed to dry overnight at 37° C. Sections were then deparaffinized and rehydrated as routinely processed for histology. Tissue sections were subjected to antigen retrieval (microwave heat treatment with TriSodium Citrate, pH 6, for 20 min), washed with 1×TBS/0.025% Triton X-100 (TBS-T), and incubated in blocking solution (2% BSA, 0.2% Triton 100×) for 2 hours at room temperature. […] Hyaluronan was detected following incubation with streptavidin-FITC conjugate (Invitrogen, 1:1000) and nuclei were stained with DAPI stain at room temperature for 1 hour in the dark. […]

MCA205 tumors [6] = experiment: Hyaluronan evaluation, HABP1 immunofluorescence; assay type: in vivo, mouse; conditions: daily ketotifen 10 mg/kg
Method: as §2, §3

NIH3T3 cells = experiment: NIH3T3 cell viability assessment; assay type: cell-based, murine; conditions: ketotifen or control for 2 or 24 hours

CN1CCC(=C2c3ccccc3CC(=O)c3sccc32)CC1 [ketotifen]
antitumor effect (tumor volume and mass) (K7M2wt tumors [1]): No subtherepautic dose of ketotifen exhibited an antitumor effect
mRNA levels of Col1A1, CTGF, Has2, Has3 (K7M2wt tumors [2]): A similar effect was observed
CAF levels and proliferation activity (α-SMA, Ki-67) (K7M2wt tumors [3]): decrease
CAF levels and proliferation activity (α-SMA, Ki-67) (MCA205 tumors [4]): decrease
expression of hyaluronan protein (HABP1 staining) (K7M2wt tumors [5]): reduced
expression of hyaluronan protein (HABP1 staining) (MCA205 tumors [6]): reduced
NIH3T3 cell viability (NIH3T3 cells): did not significantly reduce
